From patent US7723347B2, “Substituted phenylamino-pyrimidines” (Bayer Schering Pharma Aktiengesellschaft, priority 2004, dated 2010)

Legend:
[1] = biological target: recombinant Rho kinase II (ROKα) (UniProt Q62868); experiment: Inhibition of recombinant Rho kinase II (ROKα), 33P uptake into S6 substrate peptide; type: biochemical; details: Rho-kinase-catalyzed uptake of 33P into S6 peptide, 37° C., vs solvent control
Experimental: (§1) The inhibition of the enzyme is investigated in an in vitro assay with recombinant Rho kinase II. The vessel-relaxing action is determined using phenylephrine-induced contractions of isolated rings of the saphenous artery of rabbits.
Inhibition of Recombinant Rho Kinase II (ROKα)
The activity of Rho kinase is determined by the uptake of ^33P phosphate into a substrate peptide. To this end, commercially available Rho kinase II (Upstate Biotechnology) is pre-incubated at 37° C. in the presence of the S6 phosphate-acceptor peptide with the test substances or a solvent control for 10 min. The kinase reaction is then started by addition of ^33P-labeled ATP. After 20 min at 37° C., the reaction is stopped by addition of H3PO4. Aliquots are pipetted onto filters and the filters are washed and then covered with scintillator. The radioactivity of the ^33P-labeled peptides bound to the filter is measured in a Micro-Beta counter. The IC50 value corresponds to the concentration of a test substance at which the Rho-kinase-catalyzed uptake of ^33P into the peptide is inhibited by 50%, compared to a solvent control.

[2] = tested on: isolated rings of the saphenous artery of rabbits; experiment: Vessel-relaxing action in vitro, phenylephrine-induced contractions of isolated saphenous artery rings; details: Oryctolagus cuniculus; concentration reducing phenylephrine-induced contraction (3×10^−8 g/ml) of rabbit saphenous artery rings by 50%
Experimental: as §1
Vessel-Relaxing Action In Vitro
Individual 3-mm-wide rings of the isolated saphenous artery of rabbits are introduced into 5 ml organ baths with Krebs-Henseleit solution (37° C., gassed with carbogen). The vessel tone is monitored isometrically and registered. Contractions are induced by addition of 3×10^−8 g of phenylephrine/ml, which is washed out again after 4 min. After a number of control cycles, the rings are pre-incubated with the substance to be examined, with the dosage being increased for each further cycle, and the subsequent contraction is compared to the intensity of the last control contraction. The concentration required to reduce the intensity of the control value by 50% (IC50) is calculated.

IC50 [1] [nM] | IC50 [2] [nM] | Compound
7 | 86 | Nc1nc(Nc2ccc(Cc3ccnc4[nH]ccc34)c(F)c2)cc(C(F)(F)F)n1 [Example 8, N^4-[3-Fluoro-4-(1H-pyrrolo[2,3-b]pyridin-4-ylmethyl)phenyl]-6-(trifluoromethyl)pyrimidine-2,4-diamine]
3 | 8 | Cc1c[nH]c2nccc(Nc3ccc(Nc4cc(Cl)nc(N)n4)cc3F)c12 [Example 10, 6-Chloro-N^4-{3-fluoro-4-[(3-methyl-1H-pyrrolo[2,3-b]pyridin-4-yl)amino]phenyl}pyrimidine-2,4-diamine]
4 | 3 | Cc1c[nH]c2nccc(Nc3ccc(Nc4cc(C(F)(F)F)nc(N)n4)cc3F)c12 [Example 11, N^4-{3-Fluoro-4-[(3-methyl-1H-pyrrolo[2,3-b]pyridin-4-yl)amino]phenyl}-6-(trifluoromethyl)pyrimidine-2,4-diamine]
